Experimental findings from PubChem BioAssay (NCI) are described below.

Structures are written as SMILES. “And” between values parts separate entries of the source, which are not always exact repeats. Identical values can stand only once.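 How tested: cells in 96-well plates exposed to compound for 48 hours at five concentrations. GI50 is the concentration that inhibits growth by half. TGI marks complete inhibition of growth.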

Test systems include ACHN renal; EKVX NSCLC; HOP-92 NSCLC; MALME-3M melanoma; NCI-H226 lung; OVCAR-8 ovarian; SK-OV-3 ovarian; SNB-75 CNS; SR leukemia; RPMI-8226 leukemia.
What all share (assay): NCI tumour cell line growth inhibition, 48 h

On to `CCc1cccc(C)c1NC(=O)C(=O)Cc1nc2ccccc2s1`, for which the TGI is above 100 µM in the experiment on ACHN renal; above 100 µM in the experiment with EKVX NSCLC; 5.88 µM in the experiment with HOP-92 NSCLC; above 100 µM with MALME-3M melanoma; above 100 µM with NCI-H226 lung; above 100 µM with OVCAR-8 ovarian. The TGI in the experiment on SK-OV-3 ovarian, in the experiment on SNB-75 CNS and with SR leukemia was above 100 µM throughout.

In the case of `CCN(CC)Cc1ccc(Nc2nccc(-c3cnn4ncccc34)n2)cc1`, the GI50 is 0.00739 µM with ACHN renal; 0.0498 µM in the experiment on EKVX NSCLC; 0.00833 µM in the experiment on HOP-92 NSCLC; 0.033 µM in the experiment with MALME-3M melanoma; 0.0133 µM in the experiment with OVCAR-8 ovarian; 0.0749 µM with RPMI-8226 leukemia. Besides, the figures for the GI50 in the experiment with SK-OV-3 ovarian, in the experiment with SNB-75 CNS and with SR leukemia were 0.0825 µM, 0.0114 µM and 0.00795 µM, respectively. The TGI with ACHN renal is above 25 µM; with HOP-92 NSCLC, 0.0977 µM; in the experiment with MALME-3M melanoma it was 0.11 µM; in the experiment with OVCAR-8 ovarian it was above 25 µM; in the experiment with RPMI-8226 leukemia, 1.76 µM; in the experiment on SK-OV-3 ovarian, above 25 µM. In the experiment with SNB-75 CNS, this compound had a TGI of 0.0529 µM.

Take `CCOC(=O)C(=Cc1cccnc1C)C(=O)OCC`: the TGI stood at 29.5 µM with ACHN renal; 42.1 µM in the experiment with EKVX NSCLC; 24.5 µM with HOP-92 NSCLC; 26.8 µM in the experiment on MALME-3M melanoma; 53.3 µM in the experiment on NCI-H226 lung; 16.9 µM in the experiment with OVCAR-8 ovarian. Also, the TGI with SK-OV-3 ovarian stood at 25 µM; in the experiment on SNB-75 CNS, 11.8 µM; in the experiment on SR leukemia it was 26.2 µM.

For `O=C(COc1ccc(/C=C2\Oc3ccccc3C2=O)cc1)Nc1nc2c(s1)CCCC2`, the GI50 with ACHN renal was 17.4 µM; in the experiment on EKVX NSCLC it was 10.7 µM; with HOP-92 NSCLC it was 0.212 µM; in the experiment on MALME-3M melanoma, 1.25 µM; with NCI-H226 lung, 8.55 µM; in the experiment with RPMI-8226 leukemia it was 0.261 µM. Further, the figures for the GI50 in the experiment on SK-OV-3 ovarian, with SNB-75 CNS and in the experiment with SR leukemia were 50.2 µM, 0.221 µM and 0.59 µM, respectively. Also, the TGI with ACHN renal is above 100 µM; in the experiment with EKVX NSCLC it was above 100 µM; in the experiment with HOP-92 NSCLC, 2.53 µM; with MALME-3M melanoma, above 78.5 µM; in the experiment on NCI-H226 lung, 42 µM; in the experiment with RPMI-8226 leukemia it was 1.12 µM. Further, the figures for the TGI with SK-OV-3 ovarian, in the experiment with SNB-75 CNS and in the experiment on SR leukemia were above 100 µM, 0.609 µM and 2.44 µM, respectively.

Turning to `COc1ccc(OC)c(-c2c(C#N)c(N)nc(N3CCOCC3)c2C#N)c1`, the GI50 is 67.9 µM in the experiment with ACHN renal; above 100 µM with EKVX NSCLC; 82.5 µM with HOP-92 NSCLC; 85.6 µM with NCI-H226 lung; 79.1 µM in the experiment with OVCAR-8 ovarian; above 100 µM with RPMI-8226 leukemia. Besides, the figures for the GI50 with SK-OV-3 ovarian, in the experiment with SNB-75 CNS and in the experiment with SR leukemia were 11.9 µM, 12.9 µM and 36.3 µM, respectively. Moreover, the TGI in the experiment with ACHN renal, with EKVX NSCLC, with HOP-92 NSCLC, in the experiment with NCI-H226 lung, in the experiment on OVCAR-8 ovarian and in the experiment on RPMI-8226 leukemia was above 100 µM throughout. Further, the figures for the TGI in the experiment with SK-OV-3 ovarian, in the experiment with SNB-75 CNS and in the experiment with SR leukemia were above 100 µM, 57.4 µM and above 100 µM, respectively.

Turning to `CCc1ccc(NC(=O)COC(=O)c2cc([N+](=O)[O-])ccc2Sc2nnnn2C)cc1`, the GI50 in the experiment on ACHN renal was 14.2 µM; with EKVX NSCLC, 29.5 µM; in the experiment with HOP-92 NSCLC it was 22.8 µM; with MALME-3M melanoma, 24.2 µM; with NCI-H226 lung, 17 µM; in the experiment with RPMI-8226 leukemia it was 6.73 µM. The GI50 with SK-OV-3 ovarian was 27.1 µM; in the experiment on SNB-75 CNS, 13.1 µM; in the experiment on SR leukemia it was 4.05 µM. In addition, the TGI in the experiment with ACHN renal is 33.1 µM; with EKVX NSCLC, above 100 µM; with HOP-92 NSCLC, 82.7 µM; in the experiment with MALME-3M melanoma it was above 100 µM; with NCI-H226 lung, 36.1 µM; with RPMI-8226 leukemia it was 41.4 µM. For the same compound, the TGI in the experiment on SK-OV-3 ovarian is above 100 µM; in the experiment on SNB-75 CNS, 35 µM; in the experiment with SR leukemia, above 100 µM.

On to `O=C1CC(S(=O)(=O)O)C=C1Nc1cccc(Cl)c1` (stereo not given), for which the TGI in the experiment with ACHN renal, in the experiment on EKVX NSCLC, in the experiment on HOP-92 NSCLC, in the experiment on MALME-3M melanoma, in the experiment on NCI-H226 lung and in the experiment with OVCAR-8 ovarian was above 100 µM each time. Further, the TGI in the experiment with SK-OV-3 ovarian, in the experiment with SNB-75 CNS and in the experiment with SR leukemia was above 100 µM each time.

With `CC1=C2C(=CC(C)(C)C2O)C(=O)C(C)(O)C12CC2` (stereo not given), the TGI in the experiment with ACHN renal worked out at 0.0373 µM; with EKVX NSCLC, 0.144 µM; in the experiment with HOP-92 NSCLC, 0.0526 µM; with MALME-3M melanoma, 0.0337 µM; with NCI-H226 lung, 0.152 µM; with OVCAR-8 ovarian, 0.0499 µM. In addition, the TGI in the experiment with SK-OV-3 ovarian was determined as 0.175 µM; in the experiment with SNB-75 CNS it was 0.0377 µM; in the experiment on SR leukemia, 0.128 µM.

Regarding `COc1ccc(C2SC(C)C(=O)N2NC(=O)C(O)c2ccccc2)cc1OC` (stereo not given), the GI50 with ACHN renal, in the experiment with EKVX NSCLC, with HOP-92 NSCLC, in the experiment with NCI-H226 lung, in the experiment with OVCAR-8 ovarian and in the experiment on RPMI-8226 leukemia was above 100 µM in each case. Also, the GI50 in the experiment with SK-OV-3 ovarian, in the experiment on SNB-75 CNS and in the experiment with SR leukemia was above 100 µM throughout. Moreover, the TGI in the experiment on ACHN renal, in the experiment on EKVX NSCLC, with HOP-92 NSCLC, in the experiment with NCI-H226 lung, in the experiment on OVCAR-8 ovarian and in the experiment on RPMI-8226 leukemia was above 100 µM each time. In addition, the TGI in the experiment with SK-OV-3 ovarian, with SNB-75 CNS and in the experiment with SR leukemia was above 100 µM each time.

Consider `NC(=S)N/N=C/c1ncccc1N`, for which the GI50 in the experiment on EKVX NSCLC was 5.13 µM; in the experiment on HOP-92 NSCLC it was above 87.2 µM; with MALME-3M melanoma, 3 µM; with NCI-H226 lung, 1.01 µM; with RPMI-8226 leukemia, 1.45 µM; with SK-OV-3 ovarian, 3.24 µM. Moreover, the GI50 with SNB-75 CNS was 0.674 µM. In addition, the TGI in the experiment with EKVX NSCLC is above 100 µM; in the experiment with HOP-92 NSCLC, above 100 µM; in the experiment with MALME-3M melanoma it was above 90.5 µM; with NCI-H226 lung it was 8.24 µM and > 10 µM; with OVCAR-8 ovarian, above 100 µM; in the experiment with RPMI-8226 leukemia it was above 100 µM. For the same compound, the TGI was 51.3 µM and > 10 µM with SK-OV-3 ovarian; 25.3 µM and > 8.46 µM with SNB-75 CNS; 18.9 µM and > 10 µM in the experiment with SR leukemia.
